From US8445430B2, “Cyclic carboxamide compounds and analogues thereof as of hepatitis C virus” (Achillion Pharmaceuticals, Inc., priority 2008, dated 2013)
pEC50: −log10 of the molar value. Where two headings read alike, the source gives them in different places.

System: HCV replicon in Huh-7 cells
Experiment: HCV replicon assay (NPT ELISA) for inhibition of HCV replication
Assay type: cell-based
Conditions: Hepatitis C virus, Huh-7, 72 h, HCV replicon-containing Huh-7 cells, three days incubation
Description: Compounds claimed herein are tested for the ability to inhibit viral replication of the Hepatitis C replicon in cultured cells in which the HCV replicon construct has been incorporated. The HCV replicon system was described by Bartenschlager, et. al (Science, 285, pp. 110-113 (1999)). The replicon system is predictive of in vivo anti-HCV activity; compounds that are active in humans uniformly evidence activity in the replicon assay.
In this assay HCV replicon containing cells are treated with different concentrations of the test compound to ascertain the ability of the test compound to suppress replication of the HCV replicon. As a positive control, HCV replicon-containing cells are treated with different concentrations of interferon alpha, a known inhibitor of HCV replication. The replicon assay system includes Neomycin Phosphotransferase (NPT) as a component of the replicon itself in order to detect the transcription of replicon gene products in the host cell. Cells in which the HCV replicon is actively replicating have high levels of NPT; the level of NPT is proportional to HCV replication. […] The NPT level of each sample is measured using a captured ELISA.
A protocol for testing compounds for the ability to inhibit viral replication of the Hepatitis C replicon cultured cells in which the replicon construct has been incorporated, follows.
The HCV replicon contains, 5′-3′, the HCV-IRES, the neomycin phosphotransferase (neo) gene, the IRES of encephalomyocarditis virus, which directs translation of HCV sequences NS3 to NS5B, and the 3′-NTR. The sequence of the HCV replicon has been deposited in GenBank (Accession no. AJ242652).
The replicon is transfected into Huh-7 cells using standard methods such as electroporation.
The equipment and materials include, but are not limited to, Huh-7 HCV replicon-containing cells, maintenance media (DMEM (Dulbecco's modified Eagle media) supplemented with 10% FBS, L-glutamine, non-essential amino acids, penicillin (100 units/ml), streptomycin (100 micrograms/ml), and 500 micrograms/ml of Geneticin (G418), screening media (DMEM supplemented with 10% FBS, L-glutamine, non-essential amino acids, penicillin (100 units/ml) and streptomycin (100 micrograms/ml)), 96 well tissue culture plates (flat bottom), 96 well plates (U bottom for drug dilution), Interferon alpha for positive control, fixation reagent (such as methanol:acetone), primary antibody (rabbit anti-NPTII), secondary antibody: Eu-N11, and enhancement solution.
HCV replicon-containing cells support high levels of viral RNA replicon replication when their density is suitable. Over-confluency causes decreased viral RNA replication. Therefore, cells must be kept growing in log phase in the presence of 500 micrograms/ml of G418. Generally, cells should be passed twice a week at 1: 4-6 dilution. Cell maintenance is conducted as follows:
HCV replicon-containing cells are examined under a microscope to ensure that cells growing well. Cells are rinsed once with PBS and 2 ml trypsin is added. The cell/trypsin mixture is incubated at 37° C. in a CO2 incubator for 3-5 minutes. After incubation 10 ml of complete media is added to stop the trypsinization reaction. Cells are blown gently, put into a 15 ml tube, and spun at 1200 rpm for 4 minutes. The trypsin/medium solution is removed. Medium (5 ml) is added and the cells are mixed carefully. The cells are counted.
The cells are then seeded onto 96-well plates at a density of 6000-7500 cells/100 microliters/well (6-7.5×10^5 cells/10 ml/plate). The plates are then incubated at 37° C. in a 5% CO2 incubator.
Cells are examined under a microscope approximated 24 hours after seeding and prior to adding drugs. If counting and dilution were performed correctly, cells are 60-70% confluent and nearly all cells should attach and spread evenly in the well.
HCV replicon-containing cells are rinsed with once PBS once; 2 mls of trypsin are then added. Cells are incubated at 37° C. in a 5% CO2 incubator for 3-5 minutes. […]

Structure (SMILES) | pEC50 | pEC50 (read-out: EC50)
COc1ccc2c(O[C@@H]3C[C@H]4C(=O)N[C@@]5(C(=O)NS(=O)(=O)C6CC6)C[C@@H]5/C=C\CCCC(=O)N(C)[C@@H](C(C)(C)C)C(=O)N4C3)cc(-c3ccccc3)nc2c1 [Compound 11, (2R,6S,13aR,14aS,16aS,Z)-6-tert-butyl-N-(cyclopropylsulfonyl)-2-(7-methoxy-2-phenylquinolin-4-yloxy)-7-methyl-5,8,16-trioxo-1,2,3,5,6,7,8,9,10,11,13a,14,14a,15,16,16a-hexadecahydrocyclopropa[n]pyrrolo[2,1-c] [1,4,7]triazacyclopentadecine-14a-carboxamide] | ≥ 5.00 | < 5.00
C=CCCCC(=O)N[C@@H](C(=O)N1C[C@H](Oc2cc(-c3ccccc3)nc3cc(OC)ccc23)C[C@H]1C(=O)N[C@]1(C(=O)NS(=O)(=O)C2CC2)C[C@H]1C=C)C(C)(C)C [Compound 7, (2S,4R)-N-((1R,2S)-1-(cyclopropylsulfonylcarbamoyl)-2-vinylcyclopropyl)-1-((R)-2-hex-5-enamido-3,3-dimethylbutanoyl)-4-(7-methoxy-2-phenylquinolin-4-yloxy)pyrrolidine-2-carboxamide] |  | 5.00 to 6.00
COc1ccc2c(O[C@@H]3C[C@H]4C(=O)N[C@@]5(C(=O)NS(=O)(=O)C6CC6)C[C@@H]5/C=C\CCCC(=O)N[C@H](C(C)(C)C)C(=O)N4C3)cc(-c3ccccc3)nc2c1 [Compound 9, (2R,6R,13aR,14aS,16aS,Z)-6-tert-butyl-N-(cyclopropylsulfonyl)-2-(7-methoxy-2-phenylquinolin-4-yloxy)-5,8,16-trioxo-1,2,3,5,6,7,8,9,10,11,13a,14,14a,15,16,16a-hexadecahydrocyclopropa[n]pyrrolo[2,1-c] [1,4,7]triazacyclopentadecine-14a-carboxamide] |  | > 6.00
COc1ccc2c(O[C@@H]3C[C@H]4C(=O)N[C@]5(C(=O)NS(=O)(=O)C6CC6)C[C@H]5/C=C\CCCC(=O)N[C@@H](CC(=O)OC(C)(C)C)C(=O)N4C3)cc(-c3nc(C(C)C)cs3)nc2c1C [Compound 16, tert-butyl 2-((2R,6S,14aR,16aS,Z)-14a-(cyclopropylsulfonylcarbamoyl)-2-(2-(4-isopropyithiazol-2-yl)-7-methoxy-8-methylquinolin-4-yloxy)-5,8,16-trioxo-1,2,3,5,6,7,8,9,10,11,13a,14,14a,15,16,16a-hexadecahydrocyclopropa[n]pyrrolo [2,1-c][1,4,7]triazacyclopentadecin-6-yl)acetate] | ≥ 5.00 | > 6.00
COc1ccc2c(O[C@@H]3C[C@H]4C(=O)NC5(C(=O)NS(=O)(=O)C6CC6)CC5/C=C\CCCC(=O)N[C@@H](CC(=O)OC(C)(C)C)C(=O)N4C3)cc(-c3ccccc3)nc2c1 (stereo partly drawn) [Compound 14, tert-butyl 2-((2R,6S,16aS,Z)-14a-(cyclopropylsulfonylcarbamoyl)-2-(7-methoxy-2-phenylquinolin-4-yloxy)-5,8,16-trioxo-1,2,3,5,6,7,8,9,10,11,13a,14,14a,15,16,16a-hexadecahydrocyclopropa[n]pyrrolo [2,1-c][1,4,7]triazacyclopentadecin-6-yl)acetate] |  | > 6.00
CCOC(=O)[C@]12C[C@H]1/C=C\CCCC(=O)N[C@@H](C(C)(C)C)C(=O)N1C[C@H](Oc3cc(-c4ccccc4)nc4cc(OC)ccc34)C[C@H]1C(=O)N2 [Compound 2, (2R,6S,13aS,14aS,16aS,Z)-ethyl 6-tert-butyl-2-(7-methoxy-2-phenylquinolin-4-yloxy)-5,8,16-trioxo-1,2,3,5,6,7,8,9,10,11,13a,14,14a,15,16,16a-hexadecahydrocyclopropa[n]pyrrolo[2,1-c] [1,4,7]triazacyclopentadecine-14a-carboxylate] |  | < 5.00
